Reference: ChEMBL document CHEMBL5380773, “Novel Feleucin-K3-Derived Peptides Modified with Sulfono-γ-AA Building Blocks Targeting Pseudomonas aeruginosa and Methicillin-Resistant Staphylococcus aureus Infections” (J Med Chem, 2023)
The source made the active and inactive calls. The rule behind the calls is not given here. Numbered stars: 1 amine (or outer) side, 2 acyl side, 3 side chain; on linkers, the order of the positions; unused ones are H or OH. Square brackets hold non-standard residues; d marks the D form. Peptide text beside a SMILES is read from it. * marks the point of attachment. X2 = CC(C)C[C@H](N)CN(CC(=O)[*:2])[*:1]; X1 = O=S(=O)(c1ccc(I)cc1)*

Assays:
Cell membrane = experiment: Induction of membrane disruption in Pseudomonas aeruginosa ATCC 27853 assessed as separation of outer membrane at 2 to 4 times MIC incubated for 24 hrs by TEM analysis; assay type: subcellular
Staphylococcus aureus = experiment: Antibiofilm activity against methicillin resistant Staphylococcus aureus ATCC 33591 assessed as reduction in biofilm thickness; assay type: functional, organism-based

SMILES: CC(C)C[C@H](N)CN(CC(=O)N[C@@H](CCCCN)C(=O)N[C@@H](CC(C)C)C(=O)N[C@@H](CC(C)C)C(=O)N[C@@H](CCCCN)C(=O)N[C@@H](CCCCN)C(=O)N[C@@H](CC(C)C)C(=O)N[C@@H](CC(C)C)C(N)=O)S(=O)(=O)c1ccc(I)cc1 (X1-[X2]KLLKKLL-NH2)
- Activity (Cell membrane): Active
- Activity (Staphylococcus aureus): Active
